Measurements taken from patent publication EP2121694B1, “CYCLOPROPYL FUSED INDOLOBENZAZEPINE HCV NS5B INHIBITORS” (Bristol-Myers Squibb Company, priority 2007, dated 2008).
pEC50, pIC50: −log10 of the molar value. Where two headings read alike, the source gives them in different places.

Experiments:
HCV NS5B = molecular target: T1, HCV NS5B (Hepatitis C virus genotype 1b, UniProt Q9WMX2); assay: Modified HCV NS5B RdRp enzyme assay (preincubation protocol); format: biochemical; conditions: HCV NS5B RdRp genotype 1b
T1 construct: The protein was expressed with an 18 amino acid C-terminal truncation to enhance the solubility; made in house; host or cells: E. coli BL21(DE3), pET21a vector
T1 sequence (Q9WMX2 2420-2992): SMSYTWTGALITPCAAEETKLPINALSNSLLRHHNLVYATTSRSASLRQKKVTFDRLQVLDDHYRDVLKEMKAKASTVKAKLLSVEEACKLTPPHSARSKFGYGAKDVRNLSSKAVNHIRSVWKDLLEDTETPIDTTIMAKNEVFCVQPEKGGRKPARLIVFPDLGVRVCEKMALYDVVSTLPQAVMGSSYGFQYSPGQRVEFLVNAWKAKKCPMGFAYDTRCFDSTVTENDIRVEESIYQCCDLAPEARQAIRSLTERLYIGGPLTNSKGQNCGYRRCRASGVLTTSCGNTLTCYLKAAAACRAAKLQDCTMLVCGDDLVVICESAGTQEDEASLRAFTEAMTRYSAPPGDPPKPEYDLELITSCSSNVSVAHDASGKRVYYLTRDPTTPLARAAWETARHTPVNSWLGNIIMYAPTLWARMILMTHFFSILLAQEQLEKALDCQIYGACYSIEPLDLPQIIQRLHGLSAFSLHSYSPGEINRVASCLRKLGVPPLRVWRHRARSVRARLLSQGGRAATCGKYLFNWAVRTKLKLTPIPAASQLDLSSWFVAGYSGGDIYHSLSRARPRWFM
Description: HCV NS5B RdRp cloning, expression, and purification. The cDNA encoding the NS5B protein of HCV, genotype 1b, was cloned into the pET21a expression vector. The protein was expressed with an 18 amino acid C-terminal truncation to enhance the solubility. The E. coli competent cell line BL21(DE3) was used for expression of the protein. Cultures were grown at 37 °C for ∼ 4 hours until the cultures reached an optical density of 2.0 at 600 nm. The cultures were cooled to 20 °C and induced with 1 mM IPTG. Fresh ampicillin was added to a final concentration of 50 µg/ml and the cells were grown overnight at 20 °C.
Cell pellets (3L) were lysed for purification to yield 15-24 mgs of purified NS5B. The lysis buffer consisted of 20 mM Tris-HCl, pH 7.4, 500 mM NaCl, 0.5% triton X-100, 1 mM DTT, 1mM EDTA, 20% glycerol, 0.5 mg/ml lysozyme, 10 mM MgCl2, 15 ug/ml deoxyribonuclease I, and Complete TM protease inhibitor tablets (Roche). After addition of the lysis buffer, frozen cell pellets were resuspended using a tissue homogenizer. To reduce the viscosity of the sample, aliquots of the lysate were sonicated on ice using a microtip attached to a Branson sonicator. The sonicated lysate was centrifuged at 100,000 x g for 1hr at 4 °C and filtered through a 0.2 µm filter unit (Corning).
The protein was purified using three sequential chromatography steps: Heparin sepharose CL-6B, polyU sepharose 4B, and Hitrap SP sepharose (Pharmacia). The chromatography buffers were identical to the lysis buffer but contained no lysozyme, deoxyribonuclease I, MgCl2 or protease inhibitor and the NaCl concentration of the buffer was adjusted according to the requirements for charging the protein onto the column. Each column was eluted with a NaCl gradient which varied in length from 5-50 column volumes depending on the column type. After the final chromatography step, the resulting purity of the enzyme is >90% based on SDS-PAGE analysis. The enzyme was aliquoted and stored at -80 °C.
Standard HCV NS5B RdRp enzyme assay. HCV RdRp genotype 1b assays were run in a final volume of 60 µl in 96 well plates (Costar 3912). The assay buffer is composed of 20 mM Hepes, pH 7.5, 2.5 mM KCl, 2.5 mM MgCl2, 1 mM DTT, 1.6 U RNAse inhibitor (Promega N2515), 0.1 mg/ml BSA (Promega R3961), and 2 % glycerol. All compounds were serially diluted (3-fold) in DMSO and diluted further in water such that the final concentration of DMSO in the assay was 2%. HCV RdRp genotype 1b enzyme was used at a final concentration of 28 nM. A polyA template was used at 6 nM, and a biotinylated oligo-dT12 primer was used at 180 nM final concentration. Template was obtained commercially (Amersham 27-4110). Biotinylated primer was prepared by Sigma Genosys. 3H-UTP was used at 0.6 µCi (0.29 µM total UTP). Reactions were initiated by the addition of enzyme, incubated at 30 °C for 60 min, and stopped by adding 25 µl of 50 mM EDTA containing SPA beads (4 µg/µl, Amersham RPNQ 0007). Plates were read on a Packard Top Count NXT after >1hr incubation at room temperature.
Modified HCV NS5B RdRp enzyme assay. A modified enzyme assay was performed essentially as described for the standard enzyme assay except for the following: The biotinylated oligo dT12 primer was precaptured on streptavidin-coated SPA beads by mixing primer and beads in assay buffer and incubating at room temperature for one hour. Unbound primer was removed after centrifugation. The primer-bound beads were resuspended in 20 mM Hepes buffer, pH 7.5 and used in the assay at final concentrations of 20 nM primer and 0.67 µg/µl beads. Order of addition in the assay: enzyme (14 nM) was added to diluted compound followed by the addition of a mixture of template (0.2 nM) , 3H-UTP (0.6 µCi, 0.29 µM), and primer-bound beads, to initiate the reaction; concentrations given are final. Reactions were allowed to proceed for 4 hours at 30° C.
IC50 values for compounds were determined using seven different [I]. […]

HCV replicon = assay: HCV FRET screening assay in HCV replicon cells; format: cell-based; conditions: Hepatitis C virus
Excerpt: FRET Assay Preparation. To perform the HCV FRET screening assay, 96-well cell culture plates were used. The FRET peptide (Anaspec, Inc.) (Taliani et al., Anal. Biochem. 1996, 240, 60-67) contains a fluorescence donor, EDANS, near one end of the peptide and an acceptor, DABCYL, near the other end. The fluorescence of the peptide is quenched by […] resonance energy transfer (RET) between the donor and the acceptor, but as the NS3 protease cleaves the peptide the products are released from RET quenching and the fluorescence of the donor becomes apparent. The assay reagent was made as follows: 5X cell Luciferase cell culture lysis reagent from Promega (#E153A) diluted to 1X with dH2O, NaCl added to 150 mM final, the FRET peptide diluted to 20 uM final from a 2 mM stock.
To prepare plates, HCV replicon cells, with or without a Renilla luciferase reporter gene, were trypsinized and placed into each well of a 96-well plate with titrated test compounds added in columns 3 through 12; columns 1 and 2 contained a control compound (HCV protease inhibitor), and the bottom row contained cells without compound. The plates were then placed in a CO2 incubator at 37 °C.
Assays. Subsequent to addition of the test compounds described above (FRET Assay Preparation), at various times the plate was removed and Alamar blue solution (Trek Diagnostics, #00-100) was added per well as a measure of cellular toxicity. After reading in a Cytoflour 4000 instrument (PE Biosystems), plates were rinsed with PBS and then used for FRET assay by the addition of 30 ul of the FRET peptide assay reagent described above (FRET Assay Preparation) per well. The plate was then placed into the Cytoflour 4000 instrument which had been set to 340 excite/490 emission, automatic mode for 20 cycles and the plate read in a kinetic mode. Typically, the signal to noise using an endpoint analysis after the reads was at least three-fold. Alternatively, after Alamar blue reading, plates were rinsed with PBS, 50 ul of DMEM (high glucose) without phenol red was added and plates were then used for luciferase assay using the Promega Dual-Glo Luciferase Assay System.
Compound analysis was determined by quantification of the relative HCV replicon inhibition and the relative cytotoxicity values. To calculate cytoxicity values, the average Alamar Blue fluorescence signals from the control wells were set as 100% non-toxic. The individual signals in each of the compound test wells were then divided by the average control signal and multiplied by 100% to determine […]. To calculate the HCV replicon inhibition values, an average background value was obtained from the two wells containing the highest amount of HCV protease inhibitor at the end of the assay period. These numbers were similar to those obtained from naïve Huh-7 cells.
The background numbers were then subtracted from the average signal obtained from the control wells and this number was used as 100% activity. The individual signals in each of the compound test wells were then divided by the averaged control values after background subtraction and multiplied by 100% to determine percent activity. EC50 values for a protease inhibitor titration were calculated as the concentration which caused a 50% reduction in FRET or luciferase activity. The two numbers generated for the compound plate, percent cytoxicity and percent activity were used to determine compounds of interest for further analysis.

[1] = HCV replicon cells, FRET assay, read-out: EC50

Structure (SMILES) | pIC50 (HCV NS5B) | pEC50 (HCV replicon; [1]) | pEC50 (HCV replicon)
C[C@@H]1CN(C(=O)C23CC2c2c(OC(F)(F)F)cccc2-c2c(C4CCCCC4)c4ccc(C(=O)NS(=O)(=O)N(C)C)cc4n2C3)C[C@H](C)O1 (stereo partly drawn) | 6.00 to 7.01 | 6.00 to 7.01 | –
COc1ccc2c(c1)C1CC1(C(=O)N1C[C@@H](C)O[C@@H](C)C1)Cn1c-2c(C2CCCCC2)c2ccc(C(=O)NS(=O)(=O)C3CC3)cc21 (stereo partly drawn) | 6.00 to 7.01 | 6.00 to 7.01 | –
COc1cccc2c1C1CC1(C(=O)N1C[C@@H](C)O[C@@H](C)C1)Cn1c-2c(C2CCCCC2)c2ccc(C(=O)NS(=O)(=O)N(C)C)cc21 (stereo partly drawn) | 6.00 to 7.01 | 6.00 to 7.01 | –
COc1ccc2c(c1)C1CC1(C(=O)N1CCCN(C)CC1)Cn1c-2c(C2CCCCC2)c2ccc(C(=O)NS(=O)(=O)C(C)C)cc21 (stereo not drawn) | 6.00 to 7.01 | < 6.92 | –
COc1ccc2c(c1)C1CC1(C(=O)N1CC[C@H](N(C)C)C1)Cn1c-2c(C2CCCCC2)c2ccc(C(=O)NS(=O)(=O)C3CC3)cc21 (stereo partly drawn) | 6.00 to 7.01 | 6.00 to 7.01 | –
COC(=O)C12CC1c1cc(O)ccc1-c1c(C3CCCCC3)c3ccc(C(=O)OC(C)(C)C)cc3n1C2 (stereo not drawn) | 5.00 to 6.00 | < 6.00 | –
COc1ccc2c(c1)C1CC1(C(=O)N1CCC(F)(F)CC1)Cn1c-2c(C2CCCCC2)c2ccc(C(=O)NS(=O)(=O)N(C)C)cc21 (stereo not drawn) | 6.00 to 7.01 | 6.00 to 7.01 | –
COc1ccc2c(c1)C1CC1(C(=O)N1CCOC[C@H]1CO)Cn1c-2c(C2CCCCC2)c2ccc(C(=O)NS(=O)(=O)N(C)C)cc21 (stereo partly drawn) | 6.00 to 7.01 | 6.00 to 7.01 | –
COc1ccc2c(c1)C1CC1(C(=O)N1CCCCC1CN(C)C)Cn1c-2c(C2CCCCC2)c2ccc(C(=O)NS(=O)(=O)N(C)C)cc21 (stereo not drawn) [drawing 49] | 6.00 to 7.01 | 6.00 to 7.01 | –
COc1ccc2c(c1)[C@@H]1C[C@]1(C(=O)O)Cn1c-2c(C2CCCCC2)c2ccc(C(=O)NS(=O)(=O)N(C)C)cc21 | 6.00 to 7.01 | – | 5.00 to 6.00
COc1ccc2c(c1)C1CC1(C(=O)N1CCCN(C)CC1)Cn1c-2c(C2CCCCC2)c2ccc(C(=O)NS(=O)(=O)N(C)C)cc21 (stereo not drawn) [drawing 58] | 6.00 to 7.01 | 6.00 to 7.01 | –
COCC1CN(C(=O)C23CC2c2cc(OC)ccc2-c2c(C4CCCCC4)c4ccc(C(=O)NS(=O)(=O)N(C)C)cc4n2C3)CCO1 (stereo not drawn) | 6.00 to 7.01 | – | 6.00 to 7.01
CCN(CC)CCN1CCCN(C(=O)C23CC2c2cc(OC)ccc2-c2c(C4CCCCC4)c4ccc(C(=O)NS(=O)(=O)N(C)C)cc4n2C3)CC1 (stereo not drawn) | 6.00 to 7.01 | 6.00 to 7.01 | –
COc1ccc2c(c1)C1CC1(C(=O)N1CCOC[C@H]1CN)Cn1c-2c(C2CCCCC2)c2ccc(C(=O)NS(=O)(=O)N(C)C)cc21 (stereo partly drawn) | 6.00 to 7.01 | 6.00 to 7.01 | –
COc1ccc2c(c1)C1CC1(C(=O)N1CCC(C)(O)CC1)Cn1c-2c(C2CCCCC2)c2ccc(C(=O)NS(=O)(=O)N(C)C)cc21 (stereo not drawn) | 6.00 to 7.01 | 6.00 to 7.01 | –
